# US4886805A, “Novel aminoalkylthio derivatives of triazolopyridine or triazoloquinoline, the processes for their preparation, and drugs, useful especially as analgesics, in which they are present” (Centre D'Activite Et De Recherches Pharmaceutique …, priority 1986, dated 1989)
# Test system: pain reactions caused by phenylbenzoquinone
# Assay: Siegmund test with phenylbenzoquinone (analgesic activity after oral administration)
# Type: in vivo, male mice, CD1 strain (Charles River)
# Settings: Mus musculus, po, read-out: AD50 confidence limits
# Experimental: This method makes it possible to assess the analgesic activity of molecules having both a peripheral and a central action.
# Male mice of the CD1 strain (Charles River) and OF1 strain (Iffa Credo), weighing from 19 to 22 g, were used for the Siegmund test and the Eddy test respectively. The tests were carried out at an ambient temperature of 21°±2° C.
# The products were suspended in an aqueous mixture of 1% gum arabic, 0.1% sodium chloride and 0.001% Tween 80.
# One hour after administration of the product studied, 0.20 to 0.22 ml of a 0.02% aqueous-alcoholic solution of phenylbenzoquinone is administered to the mice intraperitoneally.
# The number of pain reactions (twists and stretches) is counted from the 5th to the 10th minute.
# The products of the examples studied were administered to groups of 6 to 12 mice by gastric intubation (0.5 ml/20 g), one hour before phenylbenzoquinone, according to the following dosage schedule:
# The percentage inhibition of pain manifestations was calculated from the mean numbers of twists per group.
# The 50% active doses and their confidence limits were determined from the linear regression carried out on the parameters measured.
row,SMILES,ED50
1,"Cl.Cl.Fc1ccc(N2CCNCC2)c(F)c1 [Example 1, 4-(2,4-Difluorophenyl)piperazine dihydrochloride]",2.16 mg/kg
2,"Fc1ccc(C2=CCN(CCSc3nnc4ccccn34)CC2)cc1 [Example 45, 3-[2-(4-(4-Fluorophenyl)-1,2,3,6-tetrahydropyridin-1-yl)ethylmercapto]-1,2,4-triazolo(4,3-a)pyridine]",33 mg/kg
3,"Clc1ccc(C2=CCN(CCSc3nnc4ccccn34)CC2)cc1 [Example 48, 3-[2-(4-(4-Chlorophenyl)-1,2,3,6-tetrahydropyridin-1-yl)ethylmercapto]-1,2,4-triazolo(4,3-a)pyridine]",16.1 mg/kg

# Same assay, conditions: Mus musculus; 50% active dose with confidence limits; oral (gastric intubation), 1 hour before phenylbenzoquinone i.p.; twists and stretches counted 5th to 10th minute; mice; read-out: AD50 confidence limits
row,SMILES,ED50
1,"FC(F)(F)c1cccc(N2CCN(CCSc3nnc4c(C(F)(F)F)cccn34)CC2)c1.O=C(O)/C=C\C(=O)O [Example 24, 3-[2-(4-(3-Trifluoromethylphenyl)piperazin-1-yl)ethylmercapto]-8-trifluoromethyl-1,2,4-triazolo(4,3-a)pyridine maleate]",4.53 mg/kg
2,"Fc1ccc(N2CCN(CCSc3nnc4c(C(F)(F)F)cccn34)CC2)c(F)c1 [Example 28, 3-[2-(4-(2,4-Difluorophenyl)piperazin-1-yl)ethylmercapto]-8-trifluoromethyl-1,2,4-triazolo(4,3-a)pyridine]",22.4 mg/kg
3,"Cc1ccc2nnc(SCCN3CCN(c4cccc(C(F)(F)F)c4)CC3)n2c1.Cl.Cl [Example 31, 3-[2-(4-(3-Trifluoromethylphenyl)piperazin-1-yl)ethylmercapto]-6-methyl-1,2,4-triazolo(4,3-a)pyridine dihydrochloride]",3.6 mg/kg
4,"Fc1ccc(N2CCN(CCCSc3nnc4c(C(F)(F)F)cccn34)CC2)c(F)c1 [Example 32, 3-[3-(4-(2,4-Difluorophenyl)piperazin-1-yl)propylmercapto]-8-trifluoromethyl-1,2,4-triazolo(4,3-a)pyridine]",12.6 mg/kg
5,"FC(F)(F)c1cccc(N2CCN(CCSc3nnc4ccccn34)CC2)c1.O=C(O)/C=C\C(=O)O [Example 33, 3-[2-(4-(3-Trifluoromethylphenyl)piperazin-1-yl)ethylmercapto]-1,2,4-triazolo(4,3-a)pyridine maleate]",1.71 mg/kg
6,"Cl.Cl.Fc1ccccc1N1CCN(CCSc2nnc3ccccn23)CC1 [Example 41, 3-[2-(4-(2-Fluorophenyl)piperazin-1-yl)ethylmercapto]-1,2,4-triazolo(4,3-a)pyridine dihydrochloride]",3.19 mg/kg
7,"Fc1ccc(N2CCN(CCCSc3nnc4ccccn34)CC2)c(F)c1 [Example 43, 3-[3-(4-(2,4-Difluorophenyl)piperazin-1-yl)propylmercapto]-1,2,4-triazolo(4,3-a)pyridine]",13.9 mg/kg
8,"Fc1ccc(N2CCN(CCSc3nnc4ccccn34)CC2)c(F)c1 [Example 44, 3-[2-(4-(2,4-Difluorophenyl)piperazin-1-yl)ethylmercapto]-1,2,4-triazolo(4,3-a)pyridine]",11 mg/kg
9,"Clc1cccc(N2CCN(CCSc3nnc4ccccn34)CC2)c1 [Example 49, 3-[2-(4-(3-Chlorophenyl)piperazin-1-yl)ethylmercapto]-1,2,4-triazolo(4,3-a)pyridine]",2.45 mg/kg
10,"FC(F)(F)c1cccc(N2CCN(CCCSc3nnc4ccc5ccccc5n34)CC2)c1 [Example 57, 1-[3-(4-(3-Trifluoromethylphenyl)piperazin1-yl)propylmercapto]-s-triazolo(4,3-a)quinoline]",8.56 mg/kg
11,"Cc1cc2ccccc2n2c(SCCCN3CCN(c4cccc(C(F)(F)F)c4)CC3)nnc12 [Example 59, 1-[3-(4-(3-Trifluoromethylphenyl)piperazin-1-yl)propylmercapto]-4-methyl-s-triazolo(4,3-a)quinoline]",14.1 mg/kg
12,"Cc1cc2nnc(SCCN3CCN(c4ccc(F)cc4F)CC3)n2c2ccccc12 [Example 62, 1-[2-(4-(2,4-Difluorophenyl)piperazin-1-yl)ethylmercapto]-5-methyl-s-triazolo(4,3-a)quinoline]",11 mg/kg
13,"Cc1cc2ccccc2n2c(SCCN3CCN(c4cccc(C(F)(F)F)c4)CC3)nnc12 [Example 63, 1-[2-(4-(3-Trifluoromethylphenyl)piperazin-1-yl)ethylmercapto]-4-methyl-s-triazolo(4,3-a)quinoline]",8.17 mg/kg
14,"Cc1cc2ccccc2n2c(SCCCN3CCN(c4ccc(F)cc4F)CC3)nnc12 [Example 66, 1-[3-(4-(2,4-Difluorophenyl)piperazin-1-yl)propylmercapto]-4-methyl-s-triazolo(4,3-a)quinoline]",17.9 mg/kg
